In US20260240851A1, “Treatment of Parkinson's Disease in a Patient Using a Glucocerebrosidase Activator” (BIAL - R&D Investments, S.A., priority 2023, published 2026):
Like-named read-outs stand apart in the source and are kept apart here.

Experiments:
[1] = LTI-291-003 multiple dose study in GBA-PD: plasma and CSF pharmacokinetics; type: in vivo, human; conditions: for Tmin / Tmax: median; for Kp at 4 h / Cmax / AUC(0-t) / Tmax: human, oral; for Kp at 4 h: CSF and plasma, after the 28th daily dose, read-out: CSF-to-plasma concentration ratio, mean (SD); for Cmax / AUC(0-t) / Tmax: plasma
Description: This study was a Phase 1b, randomized, double-blind, placebo-controlled, multiple oral dose study of Compound A in 40 subjects (aged 40 to 80 years) with GBA-PD. Approximately 50% of the enrolled subjects had major (loss of 30%-50% total activity) mutations in GCase and 50% had polymorphism mutation (loss of 10%-20% of total activity) mutations in GCase. The objectives of this study were to investigate the safety, tolerability, and PK of multiple once-daily oral administration of Compound A and to explore the accompanying pharmacodynamic changes in subjects with GBA-PD with major and polymorphism mutations. Subjects received once-daily oral doses of 10 mg (n=10), 30 mg (n=10), or 60 mg (2×30 mg capsules) (n=10) Compound A or placebo (n=10) for 28 consecutive days.
Blood samples for Compound A concentrations were collected up to 6 hours after the first and last doses. CSF samples for Compound A concentrations were taken before the first dose and 4 hours after the last dose for each dose level.

[2] = J. M den Heijer, 2021; cited from earlier work
[3] = 10 mg daily, dose 28, GBA-PD, geometric mean
[4] = 30 mg daily, dose 1, GBA-PD, geometric mean
[5] = 30 mg daily, dose 28, GBA-PD, geometric mean
[6] = 60 mg daily, dose 1, GBA-PD, geometric mean
[7] = 60 mg daily, dose 28, GBA-PD, geometric mean

**Q.** Which Cmax/dose ([1]; 10 mg daily, dose 1, GBA-PD, geometric mean) does the source give for `CCCCCO[C@H]1CC[C@H](NC(=O)c2cnn3c(C)cc(C)nc23)CC1` [Compound A, 5,7-dimethyl-N-((1S*,4S)-4-(pentyloxy)cyclohexyl)pyrazolo[1,5-a]pyrimidine-3-carboxamide] here?
**A.** 25.4 ng/mL/mg

**Q.** What about the AUC0-last/dose ([1]; 10 mg daily, dose 1, GBA-PD, geometric mean (% CV)) of the same compound?
**A.** 109 (32.8) ng · h/mL mg

**Q.** What about the AUC0-last/dose [1, 3] of the same compound?
**A.** 252 ng·h/mL/mg

**Q.** And the Cmax/dose [1, 3]?
**A.** 52.0 ng/mL/mg

**Q.** What about the Cmin [1, 3] of the same compound?
**A.** 246 ng/mL

**Q.** What about the Tmin ([1]; 10 mg daily, dose 28, GBA-PD) of the same compound?
**A.** 26.3 h

**Q.** What about the AUC0-last/dose [1, 4] of the same compound?
**A.** 76.8 ng·h/mL/mg

**Q.** What about the Cmax/dose [1, 4] of the same compound?
**A.** 18.7 ng/mL/mg

**Q.** And the AUC0-last/dose [1, 5]?
**A.** 241 ng·h/mL/mg

**Q.** What about the Cmax/dose [1, 5] of the same compound?
**A.** 47.9 ng/mL/mg

**Q.** And the Cmin [1, 5]?
**A.** 788 ng/mL

**Q.** And the Tmin ([1]; 30 mg daily, dose 28, GBA-PD)?
**A.** 26.1 h

**Q.** And the AUC0-last/dose [1, 6]?
**A.** 102 ng·h/mL/mg

**Q.** What about the Cmax/dose [1, 6] of the same compound?
**A.** 25.5 ng/mL/mg

**Q.** And the Cmax/dose [1, 7]?
**A.** 46.6 ng/mL/mg

**Q.** What about the Cmin [1, 7] of the same compound?
**A.** 1370 ng/mL

**Q.** What about the AUC0-last/dose ([1]; 60 mg daily, dose 28, GBA-PD, geometric mean (% CV)) of the same compound?
**A.** 234 (15.7) ng · h/mL mg

**Q.** And the Tmin ([1]; 60 mg daily, dose 28, GBA-PD)?
**A.** 26.0 h

**Q.** What about the “total exposure (Cmax and AUC0-last) versus dose” value ([1]; 10 to 60 mg, after 1st and 28th dose) of the same compound?
**A.** increase in a dose proportional manner

**Q.** What about the “time of peak plasma concentrations (median)” value ([1]; after the 1st and 28th daily dose) of the same compound?
**A.** 2.0 h

**Q.** What about the Kp at 4 h ([1]; 10 mg) of the same compound?
**A.** 0.0113

**Q.** What about the Kp at 4 h ([1]; 30 mg) of the same compound?
**A.** 0.0122

**Q.** What about the Kp at 4 h ([1]; 60 mg) of the same compound?
**A.** 0.0115

**Q.** And the Cmax ([1]; 10 mg, 10 mg daily, dose 1, GBA-PD, geometric mean (% CV))?
**A.** 254 ng/mL

**Q.** And the AUC(0-t) ([1]; 10 mg, 10 mg daily, dose 1, GBA-PD, geometric mean, read-out: AUC0-6)?
**A.** 1080 ng·h/mL

**Q.** What about the AUC(0-t) ([1]; 10 mg, 10 mg daily, dose 1, GBA-PD, geometric mean, read-out: AUC0-last) of the same compound?
**A.** 1090 ng·h/mL

**Q.** What about the Cmax ([1]; 10 mg, 10 mg daily, dose 28, GBA-PD, geometric mean) of the same compound?
**A.** 520 ng/mL

**Q.** What about the AUC(0-t) ([1]; 10 mg, 10 mg daily, dose 28, GBA-PD, geometric mean, read-out: AUC0-6) of the same compound?
**A.** 2520 ng·h/mL

**Q.** And the AUC(0-t) ([1]; 10 mg, 10 mg daily, dose 28, GBA-PD, geometric mean, read-out: AUC0-last)?
**A.** 2520 ng·h/mL

**Q.** What about the Cmax ([1]; 30 mg, 30 mg daily, dose 1, GBA-PD, geometric mean (% CV)) of the same compound?
**A.** 561 ng/mL

**Q.** And the AUC(0-t) ([1]; 30 mg, 30 mg daily, dose 1, GBA-PD, geometric mean, read-out: AUC0-6)?
**A.** 2300 ng·h/mL

**Q.** And the AUC(0-t) ([1]; 30 mg, 30 mg daily, dose 1, GBA-PD, geometric mean, read-out: AUC0-last)?
**A.** 2300 ng·h/mL

**Q.** What about the Cmax ([1]; 30 mg, 30 mg daily, dose 28, GBA-PD, geometric mean) of the same compound?
**A.** 1440 ng/mL

**Q.** What about the AUC(0-t) ([1]; 30 mg, 30 mg daily, dose 28, GBA-PD, geometric mean, read-out: AUC0-6) of the same compound?
**A.** 7230 ng·h/mL

**Q.** And the AUC(0-t) ([1]; 30 mg, 30 mg daily, dose 28, GBA-PD, geometric mean, read-out: AUC0-last)?
**A.** 7230 ng·h/mL

**Q.** And the Cmax ([1]; 60 mg, 60 mg daily, dose 1, GBA-PD, geometric mean)?
**A.** 1530 ng/mL

**Q.** What about the AUC(0-t) ([1]; 60 mg, 60 mg daily, dose 1, GBA-PD, geometric mean, read-out: AUC0-6) of the same compound?
**A.** 6080 ng·h/mL

**Q.** What about the AUC(0-t) ([1]; 60 mg, 60 mg daily, dose 1, GBA-PD, geometric mean, read-out: AUC0-last) of the same compound?
**A.** 6100 ng·h/mL

**Q.** What about the Cmax ([1]; 60 mg, 60 mg daily, dose 28, GBA-PD, geometric mean) of the same compound?
**A.** 2790 ng/mL

**Q.** What about the AUC(0-t) ([1]; 60 mg, 60 mg daily, dose 28, GBA-PD, geometric mean, read-out: AUC0-6) of the same compound?
**A.** 14100 ng·h/mL

**Q.** And the AUC(0-t) ([1]; 60 mg, 60 mg daily, dose 28, GBA-PD, geometric mean, read-out: AUC0-last)?
**A.** 14100 ng·h/mL

**Q.** And the Tmax ([1]; 10 mg daily, dose 1, GBA-PD)?
**A.** 2 h

**Q.** What about the Tmax ([1]; 30 mg daily, dose 1, GBA-PD) of the same compound?
**A.** 2 h

**Q.** And the Tmax ([1]; 60 mg daily, dose 1, GBA-PD)?
**A.** 2 h

**Q.** And the “PK in healthy subjects versus subjects with GBA-PD” value ([1]; in vivo)?
**A.** similar

**Q.** And the “safety and tolerability in healthy humans” value [2]?
**A.** generally well tolerated
